In patent US11951094B2, “TLR2 modulator compounds, pharmaceutical compositions and uses thereof” (Axial Therapeutics, Inc., priority 2020, dated 2024):

What was measured:
TLR2 [1] = molecular target: T1, TLR2 (Mus musculus, UniProt Q9QUN7); assay: TLR2 functional assay, cytokine release from RAW 264.7 mouse macrophage cell line; assay type: cell-based; settings: average of all runs
T1 construct: endogenous in cells; host or cells: RAW 264.7
Description: Cells of the immune system respond to TLR agonists in part by secreting cytokines. Functional assays for TLR2 agonists measure cytokine release from purified immune cells or immortalized cell lines derived from immune cells. Cytokine release is measured by standard ELISA approaches or multiplexed analysis using the Meso Scale Discovery (MSD) platform.
Purified primary human peripheral blood mononuclear cells or RAW 264.7 mouse macrophage cell line cells are plated at approximately 40,000 cells per well. Cells are treated with agonist compounds and assays 6-24 hours post-treatment for cytokines released into the cell culture media.
Following assay measurements utilizing either HEK-Blue detection or cytokine release, all data is analyzed with the GraphPad Prism8 statistical package to determine EC50, binding and activity metrics for the TLR2 modulators.
Numerous cell lines derived from various cell types can respond to TLR2 agonists with stereotyped cytokine and chemokine secretion. In particular, cell lines derived from macrophages respond robustly to TLR2 agonists by secreting a wide array of cytokines, including (but not limited to) TNF-alpha, IL-1, IL-10 and IL-12. The human monocytic cell line THP-1, the mouse macrophage line RAW-264.7, and the rat macrophage line NR8383 were used. For each assay, the respective cell lines were plated into 96-well plates overnight and then treated the following day with various TLR2-engaging compounds at varying concentrations. The next day, supernatants were collected and assayed by multiplex immunodetection for cytokines released (MSD detection kits for respective species).
Data provided in Table 5 is generated using protocols described in Example 45 and 46.

TLR2 [2] = molecular target: TLR2 (Homo sapiens, UniProt O60603); assay: TLR2 agonist screening assay, HEK-Blue TLR2 reporter cell line (NF-kB-driven SEAP, absorbance at 600 nm); assay type: cell-based; design: host or cells: HEK-293 (HEK-Blue TLR2 reporter cell line); settings: HEK-Blue TLR2 reporter cells, agonist mode; average of all runs (Table 4)
Sequence of TLR2 (Homo sapiens, UniProt O60603) (O60603 21-784): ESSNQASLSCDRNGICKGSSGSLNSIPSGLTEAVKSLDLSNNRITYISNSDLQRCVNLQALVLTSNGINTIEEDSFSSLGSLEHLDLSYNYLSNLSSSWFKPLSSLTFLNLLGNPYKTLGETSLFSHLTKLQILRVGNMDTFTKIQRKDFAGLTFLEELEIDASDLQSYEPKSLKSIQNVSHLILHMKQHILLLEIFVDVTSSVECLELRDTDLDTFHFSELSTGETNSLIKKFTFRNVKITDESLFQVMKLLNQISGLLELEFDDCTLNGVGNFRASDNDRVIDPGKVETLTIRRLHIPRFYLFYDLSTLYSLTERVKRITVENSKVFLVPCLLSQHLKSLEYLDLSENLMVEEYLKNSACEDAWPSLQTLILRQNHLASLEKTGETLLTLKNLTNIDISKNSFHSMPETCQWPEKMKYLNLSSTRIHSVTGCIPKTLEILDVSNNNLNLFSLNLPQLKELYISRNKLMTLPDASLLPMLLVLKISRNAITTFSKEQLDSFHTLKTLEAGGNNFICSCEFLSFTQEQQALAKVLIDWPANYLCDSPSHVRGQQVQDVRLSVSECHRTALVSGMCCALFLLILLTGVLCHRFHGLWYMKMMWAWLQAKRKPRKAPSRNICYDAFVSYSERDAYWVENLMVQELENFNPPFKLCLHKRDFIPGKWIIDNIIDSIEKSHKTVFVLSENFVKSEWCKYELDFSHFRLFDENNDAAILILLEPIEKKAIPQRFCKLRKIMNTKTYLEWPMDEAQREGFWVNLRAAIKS
How it was run: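 Read-out: SEAP colour change, A600, after overnight agonist exposure. Cells: HEK-293 overexpressing TLR2, NF-kB-SEAP reporter, ~40,000/well, plated 16-24 h prior.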

T1 sequence (Q9QUN7 25-784): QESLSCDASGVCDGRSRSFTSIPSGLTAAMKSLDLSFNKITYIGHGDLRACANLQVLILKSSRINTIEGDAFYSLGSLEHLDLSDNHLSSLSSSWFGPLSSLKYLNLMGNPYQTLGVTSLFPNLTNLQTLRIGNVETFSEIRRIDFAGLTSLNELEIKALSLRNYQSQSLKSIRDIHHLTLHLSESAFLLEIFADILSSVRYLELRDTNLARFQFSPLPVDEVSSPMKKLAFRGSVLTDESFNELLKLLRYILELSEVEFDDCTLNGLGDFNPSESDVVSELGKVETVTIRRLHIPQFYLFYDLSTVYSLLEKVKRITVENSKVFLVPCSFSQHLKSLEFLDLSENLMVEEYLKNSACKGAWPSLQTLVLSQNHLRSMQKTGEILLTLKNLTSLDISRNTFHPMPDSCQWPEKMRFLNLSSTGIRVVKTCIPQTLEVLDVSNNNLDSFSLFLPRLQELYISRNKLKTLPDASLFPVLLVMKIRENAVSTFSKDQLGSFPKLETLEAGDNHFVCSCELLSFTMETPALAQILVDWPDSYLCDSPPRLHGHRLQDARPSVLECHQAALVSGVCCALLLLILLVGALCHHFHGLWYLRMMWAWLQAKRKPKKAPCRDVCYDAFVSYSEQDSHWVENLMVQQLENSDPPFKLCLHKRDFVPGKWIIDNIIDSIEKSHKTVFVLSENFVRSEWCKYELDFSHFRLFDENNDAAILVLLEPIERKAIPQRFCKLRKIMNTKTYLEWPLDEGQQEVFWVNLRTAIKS

With `CCCCCCCCCCCCNC(=O)N[C@@H]1CCCN(C(=O)c2ccc(C(=O)N3C[C@@H](C(=O)N[C@H]4C[C@@H]4c4ccccc4)[C@H](C(=O)N[C@H]4C[C@@H]4c4ccccc4)C3)cc2)C1` [Compound 204, (3S,4S)-1-(4-((R)-3-(3-dodecylureido)piperidine-1-carbonyl)benzoyl)-N3,N4-bis((1S,2R)-2-phenylcyclopropyl)pyrrolidine-3,4-dicarboxamide] the EC50 (TLR2 [1]) was over 1000 nM and the EC50 (TLR2 [2]) was 0.1 to 50 nM.
In the case of `CCCCCCCCCCCNC(=O)N[C@H]1CN(C(c2ccc(C(=O)N3C[C@@H](C(=O)N[C@H]4C[C@@H]4c4ccccc4)[C@H](C(=O)N[C@H]4C[C@@H]4c4ccccc4)C3)cc2)C(F)(F)F)C[C@@H]1OC` (single isomer, unassigned) [Compound 230, (3S,4S)—N3,N4-bis((1S,2R)-2-phenylcyclopropyl)-1-(4-((R*)-2,2,2-trifluoro-1-((3S,4S)-3-methoxy-4-(3-undecylureido)pyrrolidin-1-yl)ethyl)benzoyl)pyrrolidine-3,4-dicarboxamide], the EC50 (TLR2 [1]) is reported as over 1000 nM and the EC50 (TLR2 [2]) is reported as 0.1 to 50 nM.
For `CCCCCCCCCCCCCNC(=O)N[C@@H](CNC(=O)c1ccc(C(=O)N2C[C@@H](C(=O)N[C@H]3C[C@@H]3c3ccccc3)[C@H](C(=O)N[C@H]3C[C@@H]3c3ccccc3)C2)cc1)COC` [Compound 198, (3S,4S)-1-(4-(((S)-3-methoxy-2-(3-tridecylureido)propyl)carbamoyl)benzoyl)-N3,N4-bis((1S,2R)-2-phenylcyclopropyl)pyrrolidine-3,4-dicarboxamide], the EC50 (TLR2 [1]) was over 1000 nM and the EC50 (TLR2 [2]) was over 1000 nM.
Work on `CCCCCCCCCCCCOC(=O)N[C@H]1CN(C(=O)c2ccc(C(=O)N3C[C@@H](C(=O)N[C@H]4C[C@@H]4c4ccccc4)[C@H](C(=O)N[C@H]4C[C@@H]4c4ccccc4)C3)cc2)C[C@@H]1OC` [Compound 216, dodecyl ((3S,4S)-1-(4-((3S,4S)-3,4-bis(((1S,2R)-2-phenylcyclopropyl)carbamoyl)pyrrolidine-1-carbonyl)benzoyl)-4-methoxypyrrolidin-3-yl)carbamate] yielded an EC50 (TLR2 [1]) of over 1000 nM and an EC50 (TLR2 [2]) of 0.1 to 50 nM.
Work on `CCCCCCCOC(=O)N[C@@H](CNC(=O)c1ccc(C(=O)N2C[C@@H](C(=O)N[C@H]3C[C@@H]3c3ccccc3)[C@H](C(=O)N[C@H]3C[C@@H]3c3ccccc3)C2)cc1)C(=O)NCCCCCC` [Compound 227, heptyl ((S)-3-(4-((3S,4S)-3,4-bis(((1S,2R)-2-phenylcyclopropyl)carbamoyl)pyrrolidine-1-carbonyl)benzamido)-1-(hexylamino)-1-oxopropan-2-yl)carbamate] yielded an EC50 (TLR2 [1]) of over 1000 nM and an EC50 (TLR2 [2]) of 0.1 to 50 nM.
In the case of `CCCCCCCCOC(=O)N[C@@H](CNC(=O)c1ccc(C(=O)N2C[C@@H](C(=O)N[C@H]3C[C@@H]3c3ccccc3)[C@H](C(=O)N[C@H]3C[C@@H]3c3ccccc3)C2)cc1)C(=O)NCCCCCC` [Compound 228, octyl ((S)-3-(4-((3S,4S)-3,4-bis(((1S,2R)-2-phenylcyclopropyl)carbamoyl)pyrrolidine-1-carbonyl)benzamido)-1-(hexylamino)-1-oxopropan-2-yl)carbamate], the EC50 (TLR2 [1]) is reported as over 1000 nM and the EC50 (TLR2 [2]) is reported as 0.1 to 50 nM.
Work on `CCCCCCCCCC(=O)N[C@@H](Cn1cc(-c2ccc(C(=O)N3C[C@@H](C(=O)N[C@H]4C[C@@H]4c4ccccc4)[C@H](C(=O)N[C@H]4C[C@@H]4c4ccccc4)C3)cc2)nn1)C(=O)NCCCCCC` [Compound 213, (3S,4S)-1-(4-(1-((S)-2-decanamido-3-(hexylamino)-3-oxopropyl)-1H-1,2,3-triazol-4-yl)benzoyl)-N3,N4-bis((1S,2R)-2-phenylcyclopropyl)pyrrolidine-3,4-dicarboxamide] yielded an EC50 (TLR2 [1]) of 51 to 350 nM and an EC50 (TLR2 [2]) of 0.1 to 50 nM.
Compound `CCCCCCCCCCCNC(=O)N[C@H]1CN(C(c2ccc(C(=O)N3C[C@@H](C(=O)N[C@H]4C[C@@H]4c4ccccc4)[C@H](C(=O)N[C@H]4C[C@@H]4c4ccccc4)C3)cc2)C(F)(F)F)C[C@@H]1OC` (single isomer, unassigned) [Compound 231, (3S,4S)—N3,N4-bis((1S,2R)-2-phenylcyclopropyl)-1-(4-((S*)-2,2,2-trifluoro-1-((3S,4S)-3-methoxy-4-(3-undecylureido)pyrrolidin-1-yl)ethyl)benzoyl)pyrrolidine-3,4-dicarboxamide] has an EC50 (TLR2 [1]) of 51 to 350 nM and an EC50 (TLR2 [2]) of 0.1 to 50 nM.
`CCCCCCCCNC(=O)N[C@@H](CNC(=O)c1ccc(C(=O)N2C[C@@H](C(=O)N[C@H]3C[C@@H]3c3ccccc3)[C@H](C(=O)N[C@H]3C[C@@H]3c3ccccc3)C2)cc1)C(=O)NCCCCCC` [Compound 211, (3S,4S)-1-(4-(((S)-3-(hexylamino)-2-(3-octylureido)-3-oxopropyl)carbamoyl)benzoyl)-N3,N4-bis((1S,2R)-2-phenylcyclopropyl)pyrrolidine-3,4-dicarboxamide] was tested, and the EC50 (TLR2 [1]) was over 1000 nM and the EC50 (TLR2 [2]) was 0.1 to 50 nM.
`CCCCCCCNC(=O)N[C@@H](Cn1cc(-c2ccc(C(=O)N3C[C@@H](C(=O)N[C@H]4C[C@@H]4c4ccccc4)[C@H](C(=O)N[C@H]4C[C@@H]4c4ccccc4)C3)cc2)nn1)C(=O)NCCCCCC` [Compound 220, (3S,4S)-1-(4-(1-((S)-2-(3-heptylureido)-3-(hexylamino)-3-oxopropyl)-1H-1,2,3-triazol-4-yl)benzoyl)-N3,N4-bis((1S,2R)-2-phenylcyclopropyl)pyrrolidine-3,4-dicarboxamide] showed an EC50 (TLR2 [1]) of 0.1 to 50 nM and an EC50 (TLR2 [2]) of 0.1 to 50 nM.
With `O=C(N[C@@H](CNC(=O)c1ccc(C(=O)N2C[C@@H](C(=O)N[C@H]3C[C@@H]3c3ccccc3)[C@H](C(=O)N[C@H]3C[C@@H]3c3ccccc3)C2)cc1)C(=O)N[C@H]1C[C@@H]1c1ccccc1)N[C@H]1C[C@@H]1c1ccccc1` [Compound 223, (3S,4S)-1-(4-(((S)-3-oxo-3-(((1S,2R)-2-phenylcyclopropyl)amino)-2-(3-((1S,2R)-2-phenylcyclopropyl)ureido)propyl)carbamoyl)benzoyl)-N3,N4-bis((1S,2R)-2-phenylcyclopropyl)pyrrolidine-3,4-dicarboxamide] the EC50 (TLR2 [1]) was 351 to 1000 nM and the EC50 (TLR2 [2]) was over 1000 nM.
With `CCCCCCCCCCCCCOC(=O)N[C@H]1CN(C(=O)c2ccc(C(=O)N3C[C@@H](C(=O)N[C@H]4C[C@@H]4c4ccccc4)[C@H](C(=O)N[C@H]4C[C@@H]4c4ccccc4)C3)cc2)C[C@@H]1OC` [Compound 217, tridecyl ((3S,4S)-1-(4-((3S,4S)-3,4-bis(((1S,2R)-2-phenylcyclopropyl)carbamoyl)pyrrolidine-1-carbonyl)benzoyl)-4-methoxypyrrolidin-3-yl)carbamate] the EC50 (TLR2 [1]) was over 1000 nM and the EC50 (TLR2 [2]) was 0.1 to 50 nM.
For `CCCCCCCCC(=O)N[C@@H](CNC(=O)c1ccc(C(=O)N2C[C@@H](C(=O)N[C@H]3C[C@@H]3c3ccccc3)[C@H](C(=O)N[C@H]3C[C@@H]3c3ccccc3)C2)cc1)C(=O)NCCCCCC` [Compound 140, (3S,4S)-1-(4-(((S)-3-(hexylamino)-2-nonanamido-3-oxopropyl)carbamoyl)benzoyl)-N3,N4-bis((1S,2R)-2-phenylcyclopropyl)pyrrolidine-3,4-dicarboxamide], the EC50 (TLR2 [1]) was 51 to 350 nM and the EC50 (TLR2 [2]) was 0.1 to 50 nM.
Compound `CCCCCCCCCC(=O)N[C@@H](CNC(=O)c1ccc(C(=O)N2C[C@@H](C(=O)N[C@H]3C[C@@H]3c3ccccc3)[C@H](C(=O)N[C@H]3C[C@@H]3c3ccccc3)C2)cc1)C(=O)NCCCCCC` [Compound 175, (3S,4S)-1-(4-(((S)-2-decanamido-3-(hexylamino)-3-oxopropyl)carbamoyl)benzoyl)-N3,N4-bis ((1S,2R)-2-phenylcyclopropyl) pyrrolidine-3,4-dicarboxamide] has an EC50 (TLR2 [1]) of 51 to 350 nM and an EC50 (TLR2 [2]) of 0.1 to 50 nM.
In the case of `CCCCCCNC(=O)[C@H](Cn1cc(-c2ccc(C(=O)N3C[C@@H](C(=O)N[C@H]4C[C@@H]4c4ccccc4)[C@H](C(=O)N[C@H]4C[C@@H]4c4ccccc4)C3)cc2)nn1)NC(=O)CCCCCC` [Compound 185, (3S,4S)-1-(4-(1-((S)-2-heptanamido-3-(hexylamino)-3-oxopropyl)-1H-1,2,3-triazol-4-yl)benzoyl)-N3,N4-bis((1S,2R)-2-phenylcyclopropyl)pyrrolidine-3,4-dicarboxamide], the EC50 (TLR2 [1]) is reported as 0.1 to 50 nM and the EC50 (TLR2 [2]) is reported as 0.1 to 50 nM.
In the case of `CCCCCCCCCCCNC(=O)N[C@H]1CN(C(=O)c2ccc(C(=O)N3C[C@@H](C(=O)N[C@H]4C[C@@H]4c4ccccc4)[C@H](C(=O)N[C@H]4C[C@@H]4c4ccccc4)C3)cc2)C[C@@H]1OC` [Compound 199, (3S,4S)-1-(4-((3S,4S)-3-methoxy-4-(3-undecylureido)pyrrolidine-1-carbonyl)benzoyl)-N3,N4-bis((1S,2R)-2-phenylcyclopropyl)pyrrolidine-3,4-dicarboxamide], the EC50 (TLR2 [1]) is reported as over 1000 nM and the EC50 (TLR2 [2]) is reported as 0.1 to 50 nM.
